Where two headings read alike, the source gives them in different places.
Legend:
[1] = target: T1, BRD4 protein (Homo sapiens (Human), UniProt O60885); experiment: BRD4 protein degradation inducing action in MDA-MB-436 cells (Western blot, 6 hr); type: cell-based; conditions: MDA-MB-436 cell
Procedure: (§1) The BRD4 protein degradation inducing action of the compound of the present invention on the cancer cells that acquired resistance to conventional BRD4 protein degradation inducing agents was evaluated in vitro. In this experiment, ARV-771 and MZ1, in which a ligand for VHL and BRD4 protein inhibitor are linked, were used as a conventional BRD4 protein degradation inducing agent serving as a comparison control. Human breast cancer MDA-MB-436 cells and MDA-MB-436 cells that acquired resistance to conventional BRD4 protein degradation inducing agents (MDA-MB-436 w/o2 cells) were suspended in 10% FBS/RPMI1640, seeded in a 6 well plate and cultured at 5% CO2, 37° C. overnight. A test compound dissolved in DMSO was diluted with 10% FBS/RPMI1640 and added and the cells were further cultured for 6 hr. After culturing, the cells were lysed in a solubilizing solution (10 mM Tris-HCl, pH 7.4, 0.1% NP-40, 0.1% sodium deoxycholate, 0.1% SDS, 0.15 M NaCl, 1 mM EDTA, 10 μg/mL aprotinin). The solution was electrophoresed and proteins in acrylamide gel were transferred to Immobilon PVDF membrane using a semi-dry transfer device. […] After immersing in a secondary antibody solution for 1 hr, the object protein on the membrane was detected using ECL Prime Western Blotting Detection System or ECL Select Western Blotting Detection System (GE Healthcare).

[2] = test system: MDA-MB-436 w/o2 cells; experiment: Cytotoxic action on MDA-MB-436 w/o2 cells that acquired resistance to conventional BRD4 degraders (WST-8, 96 hr); type: cell-based, human; conditions: for resistance: IC50 in MDA-MB-436 w/o2 cells divided by IC50 in MDA-MB-436 cells; for IC50: MDA-MB-436 w/o2 cells, 96 hr; for resistance of MDA-MB-436 w/o2 cells to the substance (in words): MDA-MB-436 w/o2 versus MDA-MB-436 cells
Procedure: (§2) The cytotoxic action of the compound of the present invention against cancer cells that acquired resistance to conventional BRD4 protein degradation inducing agents was evaluated in vitro. In this experiment, ARV-771 (Proc Natl Acad Sci USA. volume 113, pages 7124-7129 (28 Jun. 2016)) and MZ1 (ACS Chem Biol. Volume 10, pages 1770-1777 (21 Aug. 2015)), in which a ligand for VHL and BRD4 protein inhibitor are linked, were used as a conventional BRD4 protein degradation inducing agent serving as a comparison control. Human breast cancer MDA-MB-436 cells and MDA-MB-436 cells that acquired resistance to conventional BRD4 protein degradation inducing agents (MDA-MB-436 w/o2 cells) were suspended in 10% FBS/RPMI1640, seeded in a 96 well plate and cultured at 5% CO2, 37° C. overnight. A test compound dissolved in DMSO was diluted with 10% FBS/RPMI1640 and added and the cells were further cultured for 96 hr. After culturing, the viable cell number was measured using a cell number measurement WST-8 kit (Kishida Chemical Co., Ltd.). As a control, the measurement was performed under conditions free of the test compound. The cytotoxic activity of the compound of the present invention against each cell is shown in IC50 value in Table 4. The IC50 value is a concentration of the compound showing 50% cell survival rate when the cell survival rate thereof under compound untreated condition is 100%. It was calculated from the straight line connecting the cell survival rate at two points enclosing the 50% cell survival rate and the compound concentration. In addition, the tolerance (fold) was calculated by dividing the IC50 value in MDA-MB-436 w/o2 cells by the IC50 value in MDA-MB-436 cells.

[3] = test system: Human breast cancer MDA-MB-436 cells; experiment: Cytotoxic action on MDA-MB-436 cells (WST-8, 96 hr); type: cell-based
Procedure: as §2

[4] = target: T1, BRD4 protein; experiment: BRD4 protein degradation inducing action in MDA-MB-436 w/o2 cells (Western blot, 6 hr); type: cell-based; conditions: MDA-MB-436 w/o2 cell
Procedure: as §1

[5] = target: T1, BRD4 protein; experiment: Inhibitory action on binding of BRD4 protein and acetylated histone H4 (TR-FRET); conditions: BRD4-1 (GST) and acetylated histone H4 peptide, 3 hr
Procedure: The inhibitory action of the compound of the present invention on the binding of BRD4 protein and a ligand thereof (acetylated histone H4) was evaluated by the time-resolved fluorescence resonance energy transfer (TR-FRET) method using EPIgeneous™ Binding Domain Kit A (Cisbio), BRD4-1 (GST) (Reaction Biology Corp) and [Lys(Ac)5/8/12/16]-Histone H4(1-21)-GGK (Biotin) (Eurogentec). In this experiment, (+)-JQ1 (Nature volume 468, pages 1067-1073 (23 Dec. 2010)) known to have an inhibitory activity on the binding of BRD4 protein and acetylated histone H4 therefor was used as a positive control drug. A test compound dissolved in DMSO was diluted with attached Diluent Buffer, added to a 384 well white plate, and BRD4-1 (GST) and [Lys(Ac)5/8/12/16]-Histone H4(1-21)-GGK (Biotin) were further added. Thereafter, Streptavidin-d2 conjugate and Anti-GST-Eu^3+ Cryptate Conjugate were added and the cells were incubated at room temperature for 3 hr. The binding amount of the BRD4 protein and acetylated histone H4 was measured as the fluorescence intensity (excitation: 314 nm/emission: 620 nm and excitation: 314 nm/emission: 665 nm). […] It was calculated from the straight line connecting the degradation rate at two points enclosing the 50% fluorescence intensity and the compound concentration.

[6] = target: T1, BRD4 protein; experiment: BRD4 protein degradation inducing action in LNCaP cells (immunofluorescence, 6 hr); type: cell-based; conditions: anti-BRD4 fluorescence intensity
In short: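 Read-out is BRD4 immunofluorescence intensity (560/572 nm) after 6 hr compound treatment of LNCaP cells in 10% FBS/RPMI1640, with fixation, permeabilization and anti-BRD4 staining. Linear interpolation between the two concentrations flanking 50% of untreated intensity gives DC50.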

[7] = test system: human prostate cancer LNCaP cells; experiment: Cytotoxic action on LNCaP cells (WST-8, 96 hr); type: cell-based; conditions: 96 hr culture
In short: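 Growth-inhibition format: 96 hr continuous exposure, 37° C, 5% CO2, 10% FBS/RPMI1640, WST-8 read-out. Values are IC50 against the untreated-control survival, taken from the line joining the two points around 50%.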

SMILES | degradation of BRD4 protein (Western blot, FIG. 1) [1] | resistance [2] [fold] | IC50 [2] [nM] | resistance of MDA-MB-436 w/o2 cells to the substance (in words) [2] | IC50 [3] [nM] | degradation of BRD4 protein (Western blot, FIG. 1) [4] | IC50 [5] [nM] | IC50 ([2]; Homo sapiens) [nM] | IC50 ([3]; Homo sapiens) [nM] | DC50 [6] [nM] | IC50 [7] [nM]
Cc1ncsc1-c1ccc([C@H](C)NC(=O)[C@@H]2C[C@@H](O)CN2C(=O)[C@@H](NC(=O)COCCCOCCNC(=O)C[C@@H]2N=C(c3ccc(Cl)cc3)c3c(sc(C)c3C)-n3c(C)nnc32)C(C)(C)C)cc1 [ARV-771, reference compound] | induced degradation of BRD4 protein | 150 | 860 | showed resistance | 5.6 | did not induce degradation | – | – | – | – | –
COC(=O)C[C@@H]1N=C(c2ccc(-c3ccc(C(=O)NCCc4ccc(S(=O)(=O)Nc5ccc(C)c6c(C#N)c[nH]c56)cc4)cc3)cc2)c2c(sc(C)c2C)-n2c(C)nnc21 [Example 11, methyl [(6S)-4-{4′-[(2-{4-[(3-cyano-4-methyl-1H-indol-7-yl)sulfamoyl]phenyl}ethyl)carbamoyl][1,1′-biphenyl]-4-yl}-2,3,9-trimethyl-6H-thieno[3,2-f][1,2,4]triazolo[4,3-a][1,4]diazepin-6-yl]acetate] | – | 1.2 | – | – | – | – | 5.7 | 0.31 | 0.27 | 0.083 | 0.074
Cc1ncsc1-c1ccc(CNC(=O)[C@@H]2C[C@@H](O)CN2C(=O)[C@@H](NC(=O)COCCOCCOCCNC(=O)C[C@@H]2N=C(c3ccc(Cl)cc3)c3c(sc(C)c3C)-n3c(C)nnc32)C(C)(C)C)cc1 [MZ1, reference compound] | induced degradation of BRD4 protein | >26 | > 50000 | showed resistance | 1900 | did not induce degradation | – | – | – | – | –
COC(=O)C[C@@H]1N=C(c2ccc(-c3ccc(C(=O)NCc4ccc(S(=O)(=O)Nc5ccc(C)c6c(C#N)c[nH]c56)cc4)nc3)cc2)c2c(sc(C)c2C)-n2c(C)nnc21 [Example 53, methyl [(6S)-4-(4-{6-[({4-[(3-cyano-4-methyl-1H-indol-7-yl)sulfamoyl]phenyl}methyl)carbamoyl]pyridin-3-yl}phenyl)-2,3,9-trimethyl-6H-thieno[3,2-f][1,2,4]triazolo[4,3-a][1,4]diazepin-6-yl]acetate] | – | 1.5 | – | – | – | – | – | 0.32 | 0.21 | 0.078 | 0.16
CCc1ccc(NS(=O)(=O)c2ccc(CNC(=O)c3ccc(-c4ccc(C5=N[C@@H](CC(=O)OC)c6nnc(C)n6-c6sc(C)c(C)c65)cc4)cc3)cc2)c2[nH]cc(C#N)c12 [Example 43, methyl [(6S)-4-{4′-[({4-[(3-cyano-4-ethyl-1H-indol-7-yl)sulfamoyl]phenyl}methyl)carbamoyl][1,1′-biphenyl]-4-yl}-2,3,9-trimethyl-6H-thieno[3,2-f][1,2,4]triazolo[4,3-a][1,4]diazepin-6-yl]acetate] | – | 1.3 | – | – | – | – | – | 0.42 | 0.34 | 0.12 | 0.23

From US11890288B2, “Sulfonamide or sulfinamide compound having effect of inducing BRD4 protein degradation and pharmaceutical use thereof” (MITSUBISHI TANABE PHARMA CORPORATION, priority 2020, dated 2024)
